According to ChEMBL document CHEMBL1201862, “PubChem BioAssay data set” (2004):
Activity calls are given as the source filed them.

Key:
INS1 = test: suppression of cytokine-induced beta-cell apoptosis – INS-1E, caspase luminescence, dry powder, beta-cell apoptosis inhibitor project, dose response (AID 488848); assay type: functional, cell-based; conditions: Rattus norvegicus
[1] = target: Cell division cycle 7-related protein kinase (Homo sapiens, UniProt O00311); assay type: functional;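 further: value obtained from a kinome-wide kinase panel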
Sequence of Cell division cycle 7-related protein kinase (O00311 whole entry): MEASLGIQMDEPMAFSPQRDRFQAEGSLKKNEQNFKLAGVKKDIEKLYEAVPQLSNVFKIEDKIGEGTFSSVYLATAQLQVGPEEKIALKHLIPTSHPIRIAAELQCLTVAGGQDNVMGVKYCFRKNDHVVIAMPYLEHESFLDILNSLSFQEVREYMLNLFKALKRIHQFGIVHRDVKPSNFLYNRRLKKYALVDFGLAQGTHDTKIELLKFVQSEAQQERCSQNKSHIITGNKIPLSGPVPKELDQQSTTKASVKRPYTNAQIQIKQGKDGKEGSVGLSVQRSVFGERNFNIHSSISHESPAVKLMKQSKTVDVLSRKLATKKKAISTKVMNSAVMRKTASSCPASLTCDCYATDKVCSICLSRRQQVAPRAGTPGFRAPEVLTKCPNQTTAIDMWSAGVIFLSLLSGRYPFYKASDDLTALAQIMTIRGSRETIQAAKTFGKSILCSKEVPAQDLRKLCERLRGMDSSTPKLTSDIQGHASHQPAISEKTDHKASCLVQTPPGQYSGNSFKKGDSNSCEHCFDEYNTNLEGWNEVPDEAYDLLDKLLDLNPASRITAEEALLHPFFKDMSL

[2] = target: Cyclin-dependent kinase 19 (Homo sapiens, UniProt Q9BWU1); test: Navigating the Kinome. Panel member name: CDC2L6; assay type: functional
Sequence of Cyclin-dependent kinase 19 (Q9BWU1 whole entry): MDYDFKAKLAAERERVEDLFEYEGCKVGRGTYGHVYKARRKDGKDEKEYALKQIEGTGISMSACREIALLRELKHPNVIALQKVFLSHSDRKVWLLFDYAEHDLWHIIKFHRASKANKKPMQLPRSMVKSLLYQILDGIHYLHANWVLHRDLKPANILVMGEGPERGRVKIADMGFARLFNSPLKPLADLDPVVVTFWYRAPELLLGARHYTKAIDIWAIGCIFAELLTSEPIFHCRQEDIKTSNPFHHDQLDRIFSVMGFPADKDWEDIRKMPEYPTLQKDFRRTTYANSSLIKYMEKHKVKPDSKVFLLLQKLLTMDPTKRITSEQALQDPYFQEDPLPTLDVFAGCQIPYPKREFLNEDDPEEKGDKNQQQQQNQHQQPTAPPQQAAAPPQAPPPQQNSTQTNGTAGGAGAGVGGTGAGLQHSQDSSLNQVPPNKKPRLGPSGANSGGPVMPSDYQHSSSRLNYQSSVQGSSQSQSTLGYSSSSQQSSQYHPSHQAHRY

Aurora kinase A = Aurora kinase A (Homo sapiens, UniProt O14965); assay type: functional;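 further: value from the Navigating the Kinome kinase panel profiling, panel entry STK6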
Sequence of Aurora kinase A (O14965 whole entry): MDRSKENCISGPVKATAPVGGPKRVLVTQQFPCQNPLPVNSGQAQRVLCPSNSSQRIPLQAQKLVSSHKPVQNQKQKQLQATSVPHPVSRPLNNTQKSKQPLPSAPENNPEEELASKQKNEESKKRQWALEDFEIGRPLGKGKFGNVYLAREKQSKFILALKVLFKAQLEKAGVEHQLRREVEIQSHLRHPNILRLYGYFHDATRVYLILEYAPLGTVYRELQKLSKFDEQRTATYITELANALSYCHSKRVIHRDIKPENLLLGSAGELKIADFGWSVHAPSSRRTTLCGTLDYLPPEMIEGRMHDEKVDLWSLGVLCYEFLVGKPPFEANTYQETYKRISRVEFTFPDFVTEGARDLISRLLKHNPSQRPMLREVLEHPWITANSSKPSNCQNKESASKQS

[3] = target: Vascular endothelial growth factor receptor 2 (Homo sapiens, UniProt P35968); assay type: functional
Aurora kinase B = Aurora kinase B (Homo sapiens, UniProt Q96GD4); assay type: functional
Sequence of Aurora kinase B (Q96GD4 whole entry): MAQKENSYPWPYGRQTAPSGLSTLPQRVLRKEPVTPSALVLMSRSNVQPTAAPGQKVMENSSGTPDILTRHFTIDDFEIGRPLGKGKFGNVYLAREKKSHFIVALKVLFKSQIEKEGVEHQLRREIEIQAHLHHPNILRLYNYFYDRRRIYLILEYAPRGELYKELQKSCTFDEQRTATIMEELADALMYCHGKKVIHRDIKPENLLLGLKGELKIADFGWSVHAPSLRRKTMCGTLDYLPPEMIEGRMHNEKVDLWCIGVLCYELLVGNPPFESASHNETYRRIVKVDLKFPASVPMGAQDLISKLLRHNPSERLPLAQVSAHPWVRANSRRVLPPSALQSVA

[4] = THP-1 cell cytotoxicity, cytotoxicity control, set 6 (AID 602433); assay type: functional; conditions: Mycobacterium tuberculosis
[5] = target: Sphingosine 1-phosphate receptor 2 (Homo sapiens, UniProt O95136); test: Late-stage fluorescence-based dose-response cell-based counterscreen assay to identify agonists of the Sphingosine 1-Phosphate Receptor 3 (S1P3): Sphingosine 1-Phosphate Receptor 2 (S1P2) agonist assay.; assay type: functional
[6] = target: T1, Sphingosine 1-phosphate receptor 4 (Homo sapiens, UniProt O95977); test: Late-stage fluorescence-based dose-response cell-based counterscreen assay to identify agonists of the Sphingosine 1-Phosphate Receptor 3 (S1P3): Sphingosine 1-Phosphate Receptor 4 (S1P4) agonist assay.; assay type: functional
T1 sequence (O95977 whole entry): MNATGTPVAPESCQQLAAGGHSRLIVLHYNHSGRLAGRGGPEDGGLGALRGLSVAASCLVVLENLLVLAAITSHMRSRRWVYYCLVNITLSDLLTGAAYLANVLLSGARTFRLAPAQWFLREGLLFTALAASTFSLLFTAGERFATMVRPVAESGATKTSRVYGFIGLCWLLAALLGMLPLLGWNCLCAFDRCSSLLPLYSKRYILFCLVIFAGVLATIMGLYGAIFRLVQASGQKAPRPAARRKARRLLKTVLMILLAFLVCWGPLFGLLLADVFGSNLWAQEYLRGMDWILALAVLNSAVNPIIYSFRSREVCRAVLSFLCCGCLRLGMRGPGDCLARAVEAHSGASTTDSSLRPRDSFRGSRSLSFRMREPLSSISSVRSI

Candida albicans [7] = test: fluconazole-resistant Candida strain growth inhibitors – CaCi-8 strain, dry powder, set 4, dose response (AID 488950); assay type: functional, organism-based
Candida albicans [8] = test: resistant Candida growth with fluconazole co-treatment – CaCi-8 strain, Alamar Blue, dry powder, set 2, dose response (AID 488909); assay type: functional, organism-based
Candida albicans [9] = test: C. albicans growth inhibition with fluconazole – CaCi-2 strain, Alamar Blue, dry powder, set 4, dose response (AID 488943); assay type: functional, organism-based
Candida albicans [10] = test: Candida growth reduction in fluconazole presence – CaCi-2 strain, Alamar Blue, dry powder, set 2, antifungal resistance reversal project, dose response (AID 488930); assay type: functional, organism-based
Wee1-like protein kinase = Wee1-like protein kinase (Homo sapiens, UniProt P30291); test: Navigating the Kinome. Panel member name: WEE1; assay type: functional
Sequence of Wee1-like protein kinase (P30291 whole entry): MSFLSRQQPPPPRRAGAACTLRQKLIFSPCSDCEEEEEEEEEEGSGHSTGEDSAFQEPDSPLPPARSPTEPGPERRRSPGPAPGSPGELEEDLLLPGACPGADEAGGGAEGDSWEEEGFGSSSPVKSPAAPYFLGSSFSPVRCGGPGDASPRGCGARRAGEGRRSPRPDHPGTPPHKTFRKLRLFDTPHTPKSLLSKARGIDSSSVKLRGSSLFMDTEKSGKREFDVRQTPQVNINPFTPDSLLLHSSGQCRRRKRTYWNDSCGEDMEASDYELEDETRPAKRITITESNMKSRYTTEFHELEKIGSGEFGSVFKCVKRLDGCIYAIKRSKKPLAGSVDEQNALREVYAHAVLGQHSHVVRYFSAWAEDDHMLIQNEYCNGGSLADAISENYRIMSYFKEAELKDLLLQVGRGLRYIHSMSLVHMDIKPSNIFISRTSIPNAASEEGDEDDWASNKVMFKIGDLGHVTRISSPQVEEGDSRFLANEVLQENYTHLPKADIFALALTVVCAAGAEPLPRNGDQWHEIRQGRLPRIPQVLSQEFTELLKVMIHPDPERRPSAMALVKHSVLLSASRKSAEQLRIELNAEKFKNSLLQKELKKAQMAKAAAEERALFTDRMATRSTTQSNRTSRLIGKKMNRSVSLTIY

[11] = target: Serine/threonine-protein kinase pim-3 (Homo sapiens, UniProt Q86V86); assay type: functional;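 further: value obtained as one member of a broad kinase panel profiling effort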
[12] = target: Serine/threonine-protein kinase pim-1 (Homo sapiens, UniProt P11309); assay type: functional
Sequence of Serine/threonine-protein kinase pim-1 (P11309 whole entry): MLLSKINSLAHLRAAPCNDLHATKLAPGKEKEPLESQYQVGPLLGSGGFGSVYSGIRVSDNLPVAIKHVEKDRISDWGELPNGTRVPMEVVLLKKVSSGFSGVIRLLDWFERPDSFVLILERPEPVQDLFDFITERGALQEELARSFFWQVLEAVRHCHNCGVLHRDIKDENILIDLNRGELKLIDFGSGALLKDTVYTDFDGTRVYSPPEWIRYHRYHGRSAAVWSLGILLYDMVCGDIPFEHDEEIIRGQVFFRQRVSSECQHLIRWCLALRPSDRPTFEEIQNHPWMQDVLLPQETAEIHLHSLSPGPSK

SRSF protein kinase 1 = SRSF protein kinase 1 (Homo sapiens, UniProt Q96SB4); assay type: functional;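 further: measured as one member of a kinome-wide kinase profiling panel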
Sequence of SRSF protein kinase 1 (Q96SB4 whole entry): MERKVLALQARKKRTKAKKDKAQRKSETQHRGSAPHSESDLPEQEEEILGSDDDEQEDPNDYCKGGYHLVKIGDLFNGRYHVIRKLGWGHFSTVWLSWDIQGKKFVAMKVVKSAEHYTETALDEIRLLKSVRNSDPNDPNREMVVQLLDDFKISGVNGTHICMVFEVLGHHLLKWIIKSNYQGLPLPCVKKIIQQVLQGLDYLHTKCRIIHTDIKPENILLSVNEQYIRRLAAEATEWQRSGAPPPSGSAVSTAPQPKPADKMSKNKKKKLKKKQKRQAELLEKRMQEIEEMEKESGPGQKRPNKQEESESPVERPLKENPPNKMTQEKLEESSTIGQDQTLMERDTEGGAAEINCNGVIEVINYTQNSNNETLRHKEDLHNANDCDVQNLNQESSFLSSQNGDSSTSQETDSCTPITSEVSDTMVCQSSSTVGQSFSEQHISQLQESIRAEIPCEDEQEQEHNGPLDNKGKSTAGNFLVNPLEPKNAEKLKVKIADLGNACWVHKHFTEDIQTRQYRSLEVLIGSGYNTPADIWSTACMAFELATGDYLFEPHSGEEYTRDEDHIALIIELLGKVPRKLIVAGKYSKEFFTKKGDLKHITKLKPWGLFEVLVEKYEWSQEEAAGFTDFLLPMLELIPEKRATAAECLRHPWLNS

[13] = target: Tyrosine-protein kinase receptor UFO (Homo sapiens, UniProt P30530); assay type: functional
[14] = target: Dual specificity protein kinase CLK4 (Homo sapiens, UniProt Q9HAZ1); assay type: functional
[15] = target: Protein-tyrosine kinase 2-beta (Homo sapiens, UniProt Q14289); assay type: functional
[16] = target: MAP kinase-activated protein kinase 5 (Homo sapiens, UniProt Q8IW41); assay type: functional;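 further: measured as one member of a kinome panel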
Sequence of MAP kinase-activated protein kinase 5 (Q8IW41 whole entry): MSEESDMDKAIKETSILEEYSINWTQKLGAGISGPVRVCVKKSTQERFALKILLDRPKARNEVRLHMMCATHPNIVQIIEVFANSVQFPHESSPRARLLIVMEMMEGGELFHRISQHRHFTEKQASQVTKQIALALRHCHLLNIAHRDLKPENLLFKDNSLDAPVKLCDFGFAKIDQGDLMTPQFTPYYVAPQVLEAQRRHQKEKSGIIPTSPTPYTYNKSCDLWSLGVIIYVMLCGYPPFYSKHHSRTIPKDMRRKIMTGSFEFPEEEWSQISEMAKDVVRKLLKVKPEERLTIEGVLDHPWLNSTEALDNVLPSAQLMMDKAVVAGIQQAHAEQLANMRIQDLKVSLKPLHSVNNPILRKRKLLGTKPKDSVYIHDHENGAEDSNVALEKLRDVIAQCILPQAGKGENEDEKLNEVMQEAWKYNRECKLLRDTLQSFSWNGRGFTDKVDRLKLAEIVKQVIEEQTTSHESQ

Phospholipase D1 = target: T2, Phospholipase D1 (Homo sapiens, UniProt Q13393); test: PLD1 purified enzyme concentration response. [Related pubchem assays (depositor defined):AID588854]; assay type: functional
T2 sequence (Q13393 whole entry): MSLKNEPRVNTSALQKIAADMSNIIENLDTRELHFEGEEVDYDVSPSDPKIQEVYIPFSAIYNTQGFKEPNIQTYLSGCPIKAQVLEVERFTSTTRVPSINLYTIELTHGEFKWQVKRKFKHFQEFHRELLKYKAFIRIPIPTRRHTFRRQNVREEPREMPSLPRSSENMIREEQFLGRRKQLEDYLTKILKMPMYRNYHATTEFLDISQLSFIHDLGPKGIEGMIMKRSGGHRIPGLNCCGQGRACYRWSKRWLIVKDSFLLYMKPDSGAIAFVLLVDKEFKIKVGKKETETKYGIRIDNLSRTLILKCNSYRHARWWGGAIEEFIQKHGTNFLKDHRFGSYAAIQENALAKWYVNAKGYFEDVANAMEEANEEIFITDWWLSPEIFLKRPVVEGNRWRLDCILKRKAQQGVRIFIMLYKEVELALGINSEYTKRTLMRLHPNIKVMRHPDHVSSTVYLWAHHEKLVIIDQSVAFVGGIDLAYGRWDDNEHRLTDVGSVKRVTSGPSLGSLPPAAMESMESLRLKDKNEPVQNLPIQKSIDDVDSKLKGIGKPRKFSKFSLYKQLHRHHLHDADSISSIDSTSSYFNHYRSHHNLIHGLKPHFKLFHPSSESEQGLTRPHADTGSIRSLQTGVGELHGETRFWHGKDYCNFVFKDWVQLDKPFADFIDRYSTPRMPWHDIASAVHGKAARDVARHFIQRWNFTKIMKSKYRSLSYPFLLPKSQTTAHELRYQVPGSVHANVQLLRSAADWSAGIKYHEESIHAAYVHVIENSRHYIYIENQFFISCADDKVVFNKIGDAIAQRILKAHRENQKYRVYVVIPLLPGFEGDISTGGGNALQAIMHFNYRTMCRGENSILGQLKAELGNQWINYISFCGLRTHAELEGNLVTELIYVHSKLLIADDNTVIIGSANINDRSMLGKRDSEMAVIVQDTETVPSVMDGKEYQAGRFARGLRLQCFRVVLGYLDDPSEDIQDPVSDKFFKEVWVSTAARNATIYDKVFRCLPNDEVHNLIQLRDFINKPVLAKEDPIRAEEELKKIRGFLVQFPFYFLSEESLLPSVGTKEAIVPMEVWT

Phospholipase D2 [17] = target: T3, Phospholipase D2 (Homo sapiens, UniProt O14939); test: cellular phospholipase D2 inhibition IC50 – cell-based, dose response (AID 602147); assay type: functional;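 further: cellular assay in HEK293 cells overexpressing GFP-tagged PLD2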
T3 sequence (O14939 whole entry): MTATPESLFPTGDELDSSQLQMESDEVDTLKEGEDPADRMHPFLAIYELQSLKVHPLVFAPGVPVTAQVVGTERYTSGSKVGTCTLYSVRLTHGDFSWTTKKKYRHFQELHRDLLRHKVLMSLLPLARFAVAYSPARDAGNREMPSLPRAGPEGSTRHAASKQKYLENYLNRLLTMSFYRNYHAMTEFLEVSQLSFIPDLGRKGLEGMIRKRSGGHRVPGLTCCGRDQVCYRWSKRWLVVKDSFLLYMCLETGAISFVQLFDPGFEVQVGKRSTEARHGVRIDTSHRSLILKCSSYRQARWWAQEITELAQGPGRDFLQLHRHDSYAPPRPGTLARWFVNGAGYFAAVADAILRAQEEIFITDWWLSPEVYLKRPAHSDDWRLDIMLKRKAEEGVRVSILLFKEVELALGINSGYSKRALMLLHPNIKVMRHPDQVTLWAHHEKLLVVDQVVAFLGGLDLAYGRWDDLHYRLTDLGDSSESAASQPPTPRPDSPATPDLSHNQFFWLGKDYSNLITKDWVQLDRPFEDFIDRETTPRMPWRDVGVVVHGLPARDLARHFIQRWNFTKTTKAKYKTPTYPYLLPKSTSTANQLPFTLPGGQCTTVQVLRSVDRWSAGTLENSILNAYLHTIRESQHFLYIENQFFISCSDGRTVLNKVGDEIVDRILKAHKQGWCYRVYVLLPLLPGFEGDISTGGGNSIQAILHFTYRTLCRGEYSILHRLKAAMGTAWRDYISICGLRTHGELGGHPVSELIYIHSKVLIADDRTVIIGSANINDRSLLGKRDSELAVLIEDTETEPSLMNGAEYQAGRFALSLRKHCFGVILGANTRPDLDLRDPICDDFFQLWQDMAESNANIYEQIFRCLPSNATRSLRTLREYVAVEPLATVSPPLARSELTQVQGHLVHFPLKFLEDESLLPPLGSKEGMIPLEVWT

Phospholipase D2 [18] = target: T3, Phospholipase D2; test: PLD2 purified enzyme concentration response. [Related pubchem assays (depositor defined):AID588854]; assay type: functional
HEK293 [19] = test: SAR Analysis of small molecule inhibitors of T-cell specific antigen receptor-induced NF-kB activation in a HEK-293T cell line using a luminescence assay - Set 2. [Related pubchem assays (depositor defined):AID435003, AID435012, AID489026]; assay type: functional, cell-based; conditions: Homo sapiens
HEK293 [20] = test: HEK293T cell viability loss, resazurin readout – resazurin fluorescence, cytotoxicity control for NF-kB activator project, SAR follow-up (AID 493251); assay type: functional, cell-based; conditions: Homo sapiens
Jurkat = test: SAR Analysis of small molecule inhibitors of T-cell specific antigen receptor-induced NF-kB activation in a Jurkat cell line using a luminescence assay - Set 2. [Related pubchem assays (depositor defined):AID435003, AID435012, AID465]; assay type: functional, cell-based; conditions: Homo sapiens
[21] = target: T4, Endoribonuclease toxin MazF (Escherichia coli K-12, UniProt P0AE70); test: MazEF toxin-antitoxin RNase activation – biochemical, fluorescence, single-stranded RNA substrate, SAR follow-up (AID 588603); assay type: functional
T4 sequence (P0AE70 whole entry): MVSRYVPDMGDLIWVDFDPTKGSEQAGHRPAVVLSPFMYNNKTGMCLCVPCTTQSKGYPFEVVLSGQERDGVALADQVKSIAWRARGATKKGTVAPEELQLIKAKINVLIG

[22] = target: T4, Endoribonuclease toxin MazF; test: substrate-only fluorescence increase artefacts – biochemical, single-stranded RNase substrate, counter-screen for MazEF activator project, dose response (AID 588502); assay type: functional
[23] = target: T4, Endoribonuclease toxin MazF; test: activation of MazEF endoribonuclease cleavage – biochemical, fluorescence, single-stranded RNA substrate, uHTS hits, dose response (AID 588481); assay type: functional
[24] = target: T4, Endoribonuclease toxin MazF; test: SAR analysis of small molecule activators of the MazEF TA System via a fluorescence-based single-stranded RNase assay counterscreen. [Related pubchem assays (depositor defined):AID504720, AID504743]; assay type: functional
MEF = test: SAR analysis of small molecule cytotoxicity of MazEF TA System activators in embryonic fibroblast (MEF) cells. [Related pubchem assays (depositor defined):AID504720, AID504743]; assay type: functional; conditions: Mus musculus
[25] = target: T5, High affinity choline transporter 1 (Homo sapiens, UniProt Q9GZV3); test: human choline transporter potentiators, potency – cell-based, 10-point CRC, membrane potential dye, dose response (AID 602376); assay type: functional
T5 sequence (Q9GZV3 whole entry): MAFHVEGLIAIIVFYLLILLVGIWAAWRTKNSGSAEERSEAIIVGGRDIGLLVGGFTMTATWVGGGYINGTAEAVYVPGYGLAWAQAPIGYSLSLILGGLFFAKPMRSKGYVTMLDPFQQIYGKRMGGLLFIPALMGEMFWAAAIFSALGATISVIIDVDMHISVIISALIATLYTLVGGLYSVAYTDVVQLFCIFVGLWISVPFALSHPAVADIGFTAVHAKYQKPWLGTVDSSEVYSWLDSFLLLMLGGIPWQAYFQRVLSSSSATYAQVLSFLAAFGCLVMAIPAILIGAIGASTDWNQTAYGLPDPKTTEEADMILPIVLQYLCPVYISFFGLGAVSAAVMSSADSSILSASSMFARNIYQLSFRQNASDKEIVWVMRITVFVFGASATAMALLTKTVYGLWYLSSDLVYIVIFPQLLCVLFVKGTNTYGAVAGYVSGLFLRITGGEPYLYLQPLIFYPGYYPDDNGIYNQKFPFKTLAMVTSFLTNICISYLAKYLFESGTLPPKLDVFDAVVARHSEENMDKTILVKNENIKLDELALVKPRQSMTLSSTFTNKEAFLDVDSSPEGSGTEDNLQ

H4 = test: Luminescence Cell-Based Dose Response HTS to Identify Activators of 5'UTR Stem-Loop Driven Prion Protein mRNA Translation in H4 Neuroglioblastoma Cells. [Related pubchem assays: 1829 (Project Summary), 1814 (Primary HTS)]; assay type: functional; conditions: Homo sapiens
[26] = Luminescence Cell-Based Dose Response HTS to Identify Activators of Luciferase Translation or Activity in H4 […] Cells. [Related pubchem assays: 1829 (Project Summary), 1814 (Primary HTS)]; assay type: functional
[27] = target: Benomyl/methotrexate resistance protein (Candida albicans, UniProt P28873); test: Candida albicans Mdr1 pump blockade titration – singleplex, Cherry Pick2 set, dose response (AID 623992); assay type: functional; conditions: read-out: EC50_MICROM

Structure (SMILES): COc1ccc(S(=O)(=O)N(C)C[C@@H]2Oc3c(NC(=O)Nc4cccc(-c5ncccn5)c4)cccc3C(=O)N([C@@H](C)CO)C[C@H]2C)cc1
- AC50 (INS1): 98 µM (active)

Structure (SMILES): Oc1cncc2nc(-c3ccncc3)ccc12
- Ki [1]: 0.501 µM (active)
- Ki [2]: > 100 µM (inactive)

Structure (SMILES): O=C(CCCCCCC(=NO)c1ncco1)Nc1cccc(-c2ccccc2)c1
- Ki (Aurora kinase A): > 2 µM (inactive)
- Ki [3]: > 5.01 µM (inactive)
- Ki (Aurora kinase B): 0.0251 µM (active)

Structure (SMILES): CC(C)CCNC(=O)CSc1nc2c(c(=O)[nH]1)CCCC2
- CC50 [4]: > 100 µM (inconclusive)

Structure (SMILES): CC(C)Cc1cc(C(=O)N(C2CCCCC2)C2CCCCC2)no1
- EC50 [5]: > 50 µM (inactive)
- EC50 [6]: > 50 µM (inactive)

Structure (SMILES): O=C(c1ccc(Cl)cc1)N1CCN(c2ccnc3ccc(Cl)cc23)CC1
- AC50 (Candida albicans [7]): 1.47 µM (active)
- AC50 (Candida albicans [8]): 9.92 µM (active)
- AC50 (Candida albicans [9]): 0.397 µM (active)
- AC50 (Candida albicans [10]): < 0.8 µM (active)

Structure (SMILES): c1cc(NC2CCCCC2)nc(Nc2ccc3[nH]ncc3c2)n1
- Ki [1]: 0.2 µM (active)
- Ki (Wee1-like protein kinase): > 3.16 µM (inactive)

Structure (SMILES): N=C(N)Cc1cccc(-c2nc3ccccc3[nH]2)c1
- Ki [11]: 3.98 µM (active)
- Ki [12]: 5.01 µM (active)
- Ki (Aurora kinase B): 2.51 µM (active)

Structure (SMILES): O=C1CC(c2ccc(Cl)cc2)Cc2[nH]c3cc(Cl)ccc3c(=O)c21 (centres undefined)
- Ki (SRSF protein kinase 1): 6.31 µM (active)
- Ki [13]: 1.58 µM (active)
- Ki [14]: 6.31 µM (active)
- Ki [12]: 5.01 µM (active)
- Ki [15]: 1.58 µM (active)
- Ki [16]: 1.26 µM (active)

Structure (SMILES): O=C(NCCN1CCC2(CC1)C(=O)NCN2c1ccc(F)c(F)c1)c1cnc2ccccc2c1
- IC50 (Phospholipase D1): 5.48 µM (active)
- IC50 (Phospholipase D2 [17]): 0.069 µM (active)
- IC50 (Phospholipase D2 [18]): 0.2 µM (active)

Structure (SMILES): N#Cc1cccc(NC(=O)c2ccc([N+](=O)[O-])o2)c1
- IC50 (HEK293 [19]): 32.9 µM (inactive)
- IC50 (HEK293 [20]): 57.4 µM (inactive)
- IC50 (Jurkat): 18.1 µM (active)

Structure (SMILES): O=C1c2ccccc2C(Nc2ccc(S(=O)(=O)N3CCCCCC3)cc2)N1c1ccccn1 (centres undefined)
- EC50 [21]: 19.3 µM (active)
- EC50 [22]: > 99 µM (inactive)
- EC50 [23]: 16.1 µM (active)
- EC50 [24]: > 99 µM (inactive)
- CC50 (MEF): > 99 µM (inactive)

Structure (SMILES): CCC1=[N+](CC(=O)c2ccc(C)cc2)CCn2c(C)ccc21
- EC50 [25]: 13 µM (active)
- EC50 (H4): 28.3 µM (active)
- EC50 [26]: > 120 µM (not active)

Structure (SMILES): O=C(/C=C/c1cccs1)N1CCC2(CC1)Oc1ccc(F)cc1C(=O)C21CC(c2ccccc2)=NO1 (centres undefined)
- EC50 [27]: 29.7 µM (active)
